In test [1] the test system is REH. Briefly: Cell viability (CellTiter Glo), compressed perturbation pools with informed pool design, MAX-based deconvolution, REH.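 For DRS from MAX-based deconvolution: higher DRS means a larger drug effect.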 To be noted: for DRS / DRS from MAX-based deconvolution / DRS, REH, MAX / top hit of cohort (deconvoluted effect size): REH; for DRS: None (measured individually), informed pool design table; for DRS from MAX-based deconvolution: Samples, 7 Pick 3 informed perturbation pools; for DRS, REH, MAX: compressed perturbation pools, informed pool design, MAX-based deconvolution; for top hit of cohort (deconvoluted effect size): informed perturbation pools. The essentials:
(§1)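 Drugs dosed from 1 nM to 10 μM with ATP-luminescence viability, giving a DRS per drug. Pools designed by drug class, with same-class drugs in separate cohorts and clinically toxic pairs kept apart.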
In general terms: Cellular ATP, detected with luciferase, serves as a proxy for viable cell number.

The subject of test [2] is MOLT-4. Briefly: Cell viability (CellTiter Glo), library of cancer drugs, individual or sample compression with randomized (alphabetical) pools, MOLT-4. In kind it is cell-based. Conditions: for DRS: MOLT-4, None (measured individually); for DRS from deconvolution: MOLT-4, Samples, 7 Pick 3 randomized (alphabetical) sample pools. The gist of the method:
(§2)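 Cells cultured with each drug individually at 1 nM–10 μM; viability by ATP luminescence (CellTiter Glo) to build dose-response curves and DRS. Samples read singly or pooled alphabetically (each drug in 3 of 7 pools), with pooled DRS recovered by additivity-based SUM deconvolution.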

The subject of test [3] is MOLT-4. Briefly: Cell viability (CellTiter Glo), compressed perturbation pools with informed pool design, MAX-based deconvolution, MOLT-4.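 For DRS from MAX-based deconvolution: higher DRS means a larger drug effect.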 To be noted: for DRS: MOLT-4, None (measured individually), informed pool design table; for DRS from MAX-based deconvolution: MOLT-4, Samples, 7 Pick 3 informed perturbation pools; for DRS, MOLT-4, MAX: compressed perturbation pools, informed pool design, MAX-based deconvolution; for top hit of cohort (deconvoluted effect size): informed perturbation pools. The gist of the method: as §1

Test [4] concerns REH. Briefly: Cell viability (CellTiter Glo), compressed perturbation pools with informed pool design, SUM-based deconvolution, REH. On the set-up: scale not given here. The procedure:
(§3) Total cell viability was measured for each sample using an ATP-based luminescence assay (i.e., CellTiter Glo). Each cancer drug was then screened at multiple concentrations ranging from one nM to ten μM in order to generate a dose-response curve and calculate a DRS for each cancer cell line.
(§4) Each cancer drug was cultured with target cells individually. At the end of the screen, samples were either analyzed individually or compressed into pools for analysis. The library was compressed alphabetically into ten cohorts, each of which contained seven cancer drugs present in three out of the seven pools, as shown in Table VII. Said another way, the screening platform 210 generated a “7 pick 3” compressed library by assigning the cancer drugs among different pools. […] The library was also compressed into ten cohorts with pools designed based on information known about each cancer drug, as shown in Table VIII. After cell viability measurement and DRS calculation, the DRS of each cancer drug in the samples generated based on the pools were deconvoluted and compared to the DRS for each cancer drug measured individually.
(§5) In parallel to the exemplary sample compression screen covered in Table VII, perturbations were compressed into pools and then screened. The pools were designed using drug class as a feature with two compression rules (or simply “rules”). The first rule required that drugs from the same class be separated into different cohorts (i.e., mutually exclusive groups of pools). The second rule separated PI3K pathway inhibitors from MAPK pathway inhibitors, as inhibiting these pathways in parallel is known to be synergistic but has not been clinically effective due to dose-limiting toxicities. A benefit of compressing perturbations is the ability to measure additive, antagonistic, and synergistic effects between drugs in the same pool. However, these effects can negatively impact deconvolution of individual drug effects. Therefore, combinations of drugs for which evidence of clinical toxicity exists can be assigned to different pools in accordance with an informed pooling operation. As new preclinical or clinical evidence of toxic combinations becomes available, the rules implemented by the screening platform 210—and more specifically, its algorithm for compressing members of a library—can be updated accordingly.
(§6) In SUM-based deconvolution, an assumption of additivity is used to quantify the individual effects of each perturbation on each target. Additivity implies that each perturbation effect on each target is positively contributing to the overall effect measured for that pool. This is an accurate assumption for certain experiments, such as when targets or samples are compressed. When targets are pooled—or when samples containing different targets are pooled—the effect of each perturbation on each individual target is diluted. In other words, each perturbation has an isolated effect on a target in culture, and the sum total of the isolated effects are measured when pooled. Therefore, SUM-based deconvolution breaks down the sum total measured for a pool and assigns estimated fractional effects to each compressed perturbation or target in the pool. The screening platform 210 used SUM-based deconvolution for all target and sample compression experiments described above.
(§7) As mentioned above, SUM-based deconvolution uses the overlapping pool design to identify relative relationships and ranges for the individual effects of each perturbation. When the overlapping pool design is not sufficient to solve for the polynomials representing perturbation effects, an anchor perturbation can be identified by the screening platform 210 based on rank order and assigned an effect size of zero. The anchor perturbation may be the lowest ranked perturbation in the rank order. This then enables the screening platform 210 to solve for the polynomials for the remaining perturbations.

Test [5] relates to MOLT-4. Briefly: Cell viability (CellTiter Glo), compressed perturbation pools with informed pool design, SUM-based deconvolution, MOLT-4. On the set-up: scale not given here. The procedure: as §3, §4, §5, §6, §7
Test [6] deals with REH. In words: Cell viability (CellTiter Glo), library of cancer drugs, individual or sample compression with randomized (alphabetical) pools, REH. The class given is cell-based. Conditions: REH; for DRS: None (measured individually); for DRS from deconvolution: Samples, 7 Pick 3 randomized (alphabetical) sample pools. The gist of the method:
as §2

With `CCN1CCN(Cc2ccc(Nc3ncc(F)c(-c4cc(F)c5nc(C)n(C(C)C)c5c4)n3)nc2)CC1` [Abemaciclib], in test [1], the DRS is listed as 13.34; the “DRS from MAX-based deconvolution” value amounted to 15.14; the “DRS, REH, MAX” value was 0.00. In test [2], the DRS is recorded as 0.50 and the DRS from deconvolution amounted to 0.55. In test [3], the DRS is given as 15.70; the “DRS from MAX-based deconvolution” value turned out to be 17.03; the “DRS, MOLT-4, MAX” value came to 0.00. The “DRS, REH, SUM” value in test [4] is listed as 2.69. Further, the “DRS, MOLT-4, SUM” value in test [5] turned out to be 1.08. In test [6], this compound came in with a DRS of 2.40 and a DRS from deconvolution of 2.57.
Take `COc1cc2nccc(Oc3ccc(NC(=O)NC4CC4)c(Cl)c3)c2cc1C(N)=O` [Lenvatinib]: in test [1], the DRS is recorded as 0.00; the “DRS from MAX-based deconvolution” value was determined as 0.00; the “DRS, REH, MAX” value is 0.00. In test [2], this compound displayed a DRS of 0.74 and a DRS from deconvolution of 0.77. Besides, in test [3], the DRS is reported as 0.00; the “DRS from MAX-based deconvolution” value stood at 0.00; the “DRS, MOLT-4, MAX” value amounted to 0.00. Further, the “DRS, REH, SUM” value in test [4] is on record as 0.00. The “DRS, MOLT-4, SUM” value in test [5] was determined as 0.89. In test [6], this compound gave a DRS of 0.14 and a DRS from deconvolution of 0.00.
For `O=C(/C=C\n1cnc(-c2cc(C(F)(F)F)cc(C(F)(F)F)c2)n1)NNc1cnccn1` [Selinexor], in test [1], the DRS is reported as 2.30; the “DRS from MAX-based deconvolution” value turned out to be 2.51; the “top hit of cohort (deconvoluted effect size)” value (shortened to “top hit of cohort”) is reported as “top hit”; the “DRS, REH, MAX” value came out at 23.72. Also, in test [2], the DRS worked out at 24.71 and the DRS from deconvolution was 25.16. The “top hit of cohort” value in test [3] (MOLT) is reported as “top hit”. Moreover, in test [3], the DRS amounted to 0.00; the “DRS from MAX-based deconvolution” value is given as 0.00; the “DRS, MOLT-4, MAX” value is given as 24.91. Besides, the “DRS, REH, SUM” value in test [4] came to 26.41. In addition, in test [5], the “DRS, MOLT-4, SUM” value came to 24.24. In test [6], this compound registered a DRS of 21.81 and a DRS from deconvolution of 21.40.
Take `O=C(/C=C/c1cccc(S(=O)(=O)Nc2ccccc2)c1)NO` [Belinostat]: in test [1], the DRS worked out at 12.12; the “DRS from MAX-based deconvolution” value turned out to be 14.23; the “DRS, REH, MAX” value turned out to be 18.94. In test [2], this compound had a DRS of 18.70 and a DRS from deconvolution of 12.21. In test [3], the DRS turned out to be 13.42; the “DRS from MAX-based deconvolution” value was determined as 15.55; the “DRS, MOLT-4, MAX” value worked out at 21.41. Also, the “DRS, REH, SUM” value in test [4] is 18.09. The “DRS, MOLT-4, SUM” value in test [5] was found to be 14.77. In addition, in test [6], the DRS stood at 16.20 and the DRS from deconvolution is reported as 15.81.
Turning to `NC(=O)c1cccc2cn(-c3ccc([C@@H]4CCCNC4)cc3)nc12` [Niraparib], in test [1], the DRS worked out at 4.42; the “DRS from MAX-based deconvolution” value was 5.23; the “DRS, REH, MAX” value is on record as 0.00. In test [2], this compound yielded a DRS of 4.30 and a DRS from deconvolution of 4.85. Moreover, in test [3], the DRS was found to be 6.12; the “DRS from MAX-based deconvolution” value is 8.06; the “DRS, MOLT-4, MAX” value was determined as 0.00. Moreover, the “DRS, REH, SUM” value in test [4] is listed as 0.00. In addition, the “DRS, MOLT-4, SUM” value in test [5] came out at 0.00. In test [6], this compound gave a DRS of 0.70 and a DRS from deconvolution of 0.59.
On to `Cc1ccc(NC(=O)c2ccc(CN3CCN(C)CC3)cc2)cc1Nc1nccc(-c2cccnc2)n1` [Imatinib], for which, in test [1], the DRS was found to be 15.29; the “DRS from MAX-based deconvolution” value is reported as 18.48; the “DRS, REH, MAX” value was found to be 0.00. Also, in test [2], the DRS turned out to be 0.88 and the DRS from deconvolution worked out at 0.89. In test [3], the DRS came to 13.99; the “DRS from MAX-based deconvolution” value amounted to 15.14; the “DRS, MOLT-4, MAX” value is given as 0.00. Moreover, the “DRS, REH, SUM” value in test [4] is on record as 1.81. The “DRS, MOLT-4, SUM” value in test [5] came out at 1.34. In test [6], this compound had a DRS of 1.78 and a DRS from deconvolution of 1.90.
For the compound `CCOc1cc2ncc(C#N)c(Nc3ccc(OCc4ccccn4)c(Cl)c3)c2cc1NC(=O)/C=C/CN(C)C` [Neratinib], in test [1], the DRS stood at 29.39; the “DRS from MAX-based deconvolution” value turned out to be 34.11; the “DRS, REH, MAX” value worked out at 3.06. Further, in test [2], the DRS was 4.08 and the DRS from deconvolution was determined as 4.32. In addition, in test [3] (MOLT, Cohort 10), the “effect size relative to everolimus” value is given as “larger effect size than everolimus”. In test [3], the DRS turned out to be 29.89; the “DRS from MAX-based deconvolution” value was determined as 35.00; the “DRS, MOLT-4, MAX” value is listed as 4.35. The “DRS, REH, SUM” value in test [4] stood at 0.37. Also, the “DRS, MOLT-4, SUM” value in test [5] was found to be 2.74. In test [6], this compound showed a DRS of 2.58 and a DRS from deconvolution of 2.32.
As for `CO[C@H]1C[C@@H]2CC[C@@H](C)[C@@](O)(O2)C(=O)C(=O)N2CCCC[C@H]2C(=O)O[C@H]([C@H](C)C[C@@H]2CC[C@@H](OC(=O)C(C)(CO)CO)[C@H](OC)C2)CC(=O)[C@H](C)/C=C(\C)[C@@H](O)[C@@H](OC)C(=O)[C@H](C)C[C@H](C)/C=C/C=C/C=C/1C` [Temsirolimus], the “effect on REH relative to MOLT cell line” value in test [1] (REH relative to MOLT) was “much larger effects on the REH cell line”. In addition, in test [1], the DRS turned out to be 8.19; the “DRS from MAX-based deconvolution” value came to 9.23; the “top hit of cohort” value is listed as “top hit”; the “DRS, REH, MAX” value stood at 9.23. Also, in test [2], the DRS is listed as 2.99 and the DRS from deconvolution is given as 3.21. For the same compound, the “top hit of cohort” value in test [3] (MOLT) is given as “top hit”. Also, in test [3], the DRS is 2.99; the “DRS from MAX-based deconvolution” value amounted to 3.88; the “DRS, MOLT-4, MAX” value is recorded as 3.88. The “DRS, REH, SUM” value in test [4] came to 9.71. The “DRS, MOLT-4, SUM” value in test [5] stood at 2.54. Also, in test [6], the DRS is 8.19 and the DRS from deconvolution came to 8.71.

These data come from patent publication US20260378560A1, “APPROACHES TO DESIGNING AND PERFORMING COMPRESSED BIOLOGICAL EXPERIMENTS AND SYSTEMS FOR IMPLEMENTING THE SAME” (EXVIVO LABS INC., priority 2023, published 2026).
